# Reference: US20240317722A1, “HETEROARYL-3-PIPERIDINEDIONE COMPOUND AND USE THEREOF” (Medshine Discovery Inc., priority 2021, published 2024)
# Legend:
# NCI-H526 = assay: Anti-proliferative effect in NCI-H526 (CellTiter-Glo); type: cell-based; conditions: NCI-H526, 3 days; for IC50: Homo sapiens, 72 h
# Procedure: This assay studied the inhibitory effect of the compounds on cell proliferation by detecting the effect of the test compounds on the in vitro activity of tumor cells NCI-H1581, DMS114, NCI-H69 and NCI-H526.
# The tumor cell lines were cultured in an incubator at 37° C., 5% CO2 or 0% CO2 according to the above culture conditions. The cells were periodically passaged, and cells in logarithmic growth phase were taken for plating. • 2. Cell plating • (1). Cells were stained with trypan blue and viable cells were counted.
# • (3). 100 μL of cell suspension was added to each well of the culture plate, and culture medium without cells was added to the blank control well. • (4). The plate was incubated overnight in an incubator at 37° C., 5% CO2 or 0% CO2, and 100% relative humidity. • 3. Preparation of compound stock solution
# Preparation of 1000× compound stock solution: Compound was dissolved in DMSO to 10 mM, then a portion was taken out and diluted to 1000 times the highest acting concentration. The diluted stock solution was dispensed for later use. • 4. Preparation of 5× compound working solution and treatment of cells with compounds. The working solutions were prepared freshly at each time for use. • (1). Preparation of 5× compound working solution: 119.4 μL of cell culture medium was added to a 96-well plate with a V-shaped bottom. 96 μL of DMSO-cell culture medium mix solution (with DMSO content of 0.5%) was added to subsequent gradient wells. 0.6 μL of the compound from the 1000× compound stock solution was added to the cell culture medium in the 96-well plate, and mixed to uniform with a pipette. A pipette was used to draw 24 μL of the compound-cell culture medium mixture into subsequent wells, and the mixture was mixed well by a pipette each time. • (2). Dosing: 25 μL of 5× compound working solution was added to the cell culture plate. 25 μL of DMSO-cell culture medium mix solution (with DMSO content of 0.5%) was added to the vehicle control and blank control. • (3). The 96-well cell plate was placed back into the incubator and cultured for 3 days. • 5. CellTiter-Glo luminescence cell viability detection
# The following steps were performed according to the instruction of Promega CellTiter-Glo luminescence cell viability detection kit (Promega-G7573). • (1). The CellTiter-Glo buffer was thawed and allowed to stand to reach room temperature; • (2). CellTiter-Glo substrate was allowed to stand to reach room temperature; • (3). 10 mL of CellTiter-Glo buffer was added to CellTiter-Glo substrate in a bottle to dissolve the substrate to formulate CellTiter-Glo working solution; • (4). […] The culture plates were left at room temperature for 10 minutes to stabilize the luminescence signal; • (9). The luminous signal was detected on the 2104 En Vision plate reader. • 6. […]
# GSPT1 = GSPT1 (Homo sapiens, UniProt P15170+Q96SW2); assay: Target protein degradation in HEK293T-LgBiT_GSPT1-nHiBiT cells (HiBiT luminescence); type: cell-based; set-up: expressed in transfected cells; conditions: 16 to 18 hours; for Dmax: read-out: Max. DR (maximum degradation rate)
# Procedure: This assay was performed to detect the degradation effect of the test compound on the target protein GSPT1 in HEK293T-LgBiT cells.
# • 1. Preparation of compounds • (1). Dissolving the powder of the test compound with DMSO to 10 mM as the storage concentration, and using a pipette to manually draw 9 μL of 10 mM or 3 mM test compound to columns 1 and 13 of a LDV plate; • (2). Using multidrop Combi to add 6 μL of DMSO to columns 2-12 and 14-24; • (3). Using Bravo to dilute the test compound 3 times (3 μL+6 μL) from columns 1 to 11 and 13 to 23; • (4). According to the layout of the plate, using Echo to transfer 25 nL of compound solution (columns 1-24 of the LDV plate) to the assay plate; • (5). Using Echo to transfer 25 nL of 1 mM positive control solution to the assay plate as a 100% degradation control (i.e. LC, HPE), and to transfer 25 nL of DMSO to the assay plate as a 0% control (i.e. HC, ZPE). • 2. Cell plating • (1). Discarding the cell culture medium, and washing the cells once with DPBS; then the cells were trypsinized, counted, and used to prepare a cell suspension of 4×10^5 cells/mL; • (2). Using MultiDrop Combi to add 25 μL/well of cell suspension at medium speed to the assay plate containing the test compound; • (3). Putting the assay plate containing cells back into the incubator and culturing it at 37° C. and 5% CO2 for 16 to 18 hours.
# • (1). Using MultiDrop Combi to add 25 μL/well of detection reagent (NanoGlo lysis solution+substrate+LgBit protein) to the assay plate at high speed, and shaking for 10 minutes; • (2). Centrifuging at 2000 rpm×1 min to remove bubbles; • (3). Reading the plate using Envision, US Luminescence detection method.
# The following formula was used to calculate the degradation rate (DR) of the test compound: DR (%)=(RLU of vehicle control−RLU of compound)/(RLU of vehicle control−RLU of positive control)*100%, wherein the vehicle control was a blank control. The degradation rates of compounds at different concentrations were calculated in Excel, and then XLFit software was used to obtain inhibition curves and to calculate relevant parameters, including the minimum degradation rate, maximum degradation rate and DC50.
# Chain of GSPT1 (P15170 whole entry): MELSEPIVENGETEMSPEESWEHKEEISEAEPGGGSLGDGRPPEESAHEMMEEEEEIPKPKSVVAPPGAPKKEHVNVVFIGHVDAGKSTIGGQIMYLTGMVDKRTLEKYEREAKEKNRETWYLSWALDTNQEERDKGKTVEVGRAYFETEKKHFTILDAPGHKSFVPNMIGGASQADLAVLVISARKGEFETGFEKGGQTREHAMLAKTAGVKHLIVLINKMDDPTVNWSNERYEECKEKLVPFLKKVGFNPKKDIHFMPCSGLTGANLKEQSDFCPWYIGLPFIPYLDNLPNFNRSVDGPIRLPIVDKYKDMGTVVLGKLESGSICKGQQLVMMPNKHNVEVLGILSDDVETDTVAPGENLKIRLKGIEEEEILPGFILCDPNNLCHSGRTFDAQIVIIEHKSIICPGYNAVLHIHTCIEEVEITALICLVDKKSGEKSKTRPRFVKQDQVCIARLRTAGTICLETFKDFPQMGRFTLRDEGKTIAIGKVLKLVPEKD
# Chain of GSPT1 (Q96SW2 whole entry): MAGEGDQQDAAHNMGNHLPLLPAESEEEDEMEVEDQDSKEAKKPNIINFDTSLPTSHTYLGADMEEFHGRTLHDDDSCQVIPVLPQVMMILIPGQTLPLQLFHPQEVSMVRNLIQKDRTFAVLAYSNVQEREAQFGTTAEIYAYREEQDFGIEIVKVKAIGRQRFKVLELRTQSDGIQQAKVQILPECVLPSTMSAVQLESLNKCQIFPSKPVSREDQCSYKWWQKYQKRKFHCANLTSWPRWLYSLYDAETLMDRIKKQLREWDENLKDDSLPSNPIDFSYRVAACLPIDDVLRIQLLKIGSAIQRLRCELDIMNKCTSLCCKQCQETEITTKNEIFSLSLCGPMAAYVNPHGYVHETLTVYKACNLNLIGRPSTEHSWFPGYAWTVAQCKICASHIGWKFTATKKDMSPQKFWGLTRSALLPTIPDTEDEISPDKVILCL
# Chain of GSPT1 (Q16531 whole entry partner): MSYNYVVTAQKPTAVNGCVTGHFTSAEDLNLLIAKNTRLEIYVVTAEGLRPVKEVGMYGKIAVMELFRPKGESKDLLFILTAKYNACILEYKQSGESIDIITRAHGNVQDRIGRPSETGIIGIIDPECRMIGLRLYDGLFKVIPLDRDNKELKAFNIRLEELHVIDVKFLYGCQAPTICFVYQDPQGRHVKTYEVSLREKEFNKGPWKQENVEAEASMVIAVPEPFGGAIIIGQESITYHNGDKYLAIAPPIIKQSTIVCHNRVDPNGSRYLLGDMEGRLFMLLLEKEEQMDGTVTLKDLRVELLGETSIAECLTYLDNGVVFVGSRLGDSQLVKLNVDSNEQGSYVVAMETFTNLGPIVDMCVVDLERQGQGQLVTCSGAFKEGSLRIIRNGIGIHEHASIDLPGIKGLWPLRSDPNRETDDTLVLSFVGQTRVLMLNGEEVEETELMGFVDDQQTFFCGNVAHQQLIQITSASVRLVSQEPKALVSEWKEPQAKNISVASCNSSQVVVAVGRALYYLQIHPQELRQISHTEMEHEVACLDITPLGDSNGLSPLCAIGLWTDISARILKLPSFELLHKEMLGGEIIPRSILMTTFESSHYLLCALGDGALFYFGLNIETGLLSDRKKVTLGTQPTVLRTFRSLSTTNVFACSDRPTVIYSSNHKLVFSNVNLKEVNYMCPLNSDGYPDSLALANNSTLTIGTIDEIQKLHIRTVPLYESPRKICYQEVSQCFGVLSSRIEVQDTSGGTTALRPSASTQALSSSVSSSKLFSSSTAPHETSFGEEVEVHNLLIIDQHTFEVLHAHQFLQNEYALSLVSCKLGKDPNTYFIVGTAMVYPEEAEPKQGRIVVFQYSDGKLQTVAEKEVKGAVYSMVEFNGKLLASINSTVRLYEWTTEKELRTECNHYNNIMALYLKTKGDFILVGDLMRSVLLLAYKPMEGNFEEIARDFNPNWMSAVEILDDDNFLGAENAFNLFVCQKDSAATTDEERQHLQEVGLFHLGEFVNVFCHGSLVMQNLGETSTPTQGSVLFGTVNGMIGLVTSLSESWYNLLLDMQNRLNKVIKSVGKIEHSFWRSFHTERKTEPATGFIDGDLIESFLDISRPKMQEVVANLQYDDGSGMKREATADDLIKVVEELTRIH
IC50 (NCI-H526) [pM],DC50 (GSPT1) [pM],Dmax (GSPT1) [%],Compound,Max. IR (NCI-H526) [%]
500,2510,100,COCCOc1cc(NC(=O)NCc2ccc3c(C4CCC(=O)NC4=O)coc3c2)cc(Cl)c1C (centres unmarked) [WX005],99.17
100,1070,100,COCCOc1cc(NC(=O)NCc2ccc3c(C4CCC(=O)NC4=O)noc3c2)cc(Cl)c1C (centres unmarked) [WX013],99.37
